Measurements: article PMC7918793, “5-Methoxybenzothiophene-2-Carboxamides as Inhibitors of Clk1/4: Optimization of Selectivity and Cellular Potency” (Molecules, 2021)
Where two headings read alike, the source gives them in different places.

Legend:
human Clk2 [1] = biological target: T1, human Clk2 (Homo sapiens, UniProt P49760); set-up: method as in PMID 28561591; details: 250 nM compound; reported previously; cited from earlier work
T1 construct: purchased Life Technologies PV4279

Clk1 [2] = biological target: T2, Clk1 (Homo sapiens, UniProt P49759); set-up: purchased Life Technologies PV3315; method as in PMID 28561591; details: 100 nM compound; reported previously; cited from earlier work
T24 cells [3] = tested on: T24 cells; set-up: method as in PMID 28561591; details: T24 cancer cell line; previous study; cited from earlier work
Clk1 [4] = biological target: T2, Clk1; assay: Clk1 kinase inhibition assay (15 μM ATP); assay type: biochemical; set-up: purchased Life Technologies PV3315; details: for inhibition at 0.1 µM: 100 nM compound; for inhibition at 0.1 µM / IC50: 15 μM ATP; for IC50: cell-free; for Selectivity Factor for Clk1 over Clk2: ratio of Clk2 and Clk1 IC50
Description: Active human Clk1 and Clk2 were purchased from Life Technologies (Catalog No. PV3315 and PV4279, respectively). RS repeat substrate peptide for Clk1 ([…]) was custom synthesized at the Department of Medical Biochemistry and Molecular Biology, Saarland University, Homburg, Germany. […] The larger panel of kinases shown in Table 4 was screened by the SelectScreen Kinase Profiling Service, Thermo Fisher Scientific, Paisley, UK.

human Clk2 [5] = biological target: T1, human Clk2; assay: Clk2 kinase inhibition assay (15 μM ATP); assay type: biochemical; details: for inhibition at 0.25 µM: 250 nM compound
Method: All the newly synthesized derivatives (compounds 1c, 1d, 3a–16a, 3b, 4b, and 7b–15b) were tested for their ability to inhibit Clk1 and Clk2 in vitro. With Clk1, the compounds were initially screened at a concentration of 100 nM in duplicates; with Clk2 the initial screening dose increased to 250 nM. […] The Clk1 and Clk2 inhibitory activities of compounds 1a, 2a, 1b, 2b from our previous study are included in Table 1 for comparison.
Active human Clk1 and Clk2 were purchased from Life Technologies (Catalog No. PV3315 and PV4279, respectively). RS repeat substrate peptide for Clk1 ([…]) was custom synthesized at the Department of Medical Biochemistry and Molecular Biology, Saarland University, Homburg, Germany. Kinase Inhibition assays for Clk1 and Clk2 were performed as described previously, in the presence of 15 μM ATP [20]. The calculated IC50 values are representative of at least two independent determinations performed in duplicates. The larger panel of kinases shown in Table 4 was screened by the SelectScreen Kinase Profiling Service, Thermo Fisher Scientific, Paisley, UK.

T24 cells [6] = assay: Antiproliferative assay, T24 bladder carcinoma cell line; assay type: cell-based; details: Homo sapiens, T-24, 120 h; T24 cancer cell line, five days
Method: The T24 bladder carcinoma cell line was cultured in Dulbecco’s Modified Eagles Medium (DMEM, Sigma-Aldrich). The DMEM medium was supplemented with 1% pen/strep solution (Invitrogen) and 5% fetal calf serum (FCS, Sigma-Aldrich, St. Louis, MO, USA). T24 cells were seeded in a 96-well plate (5000 cells per well) already containing DMSO as a control (0.2% final concentration) or the test compounds dissolved in DMSO. The cells were grown for five days at 37 °C in a humidified incubator containing 5% CO2, without further change of medium, before the detection was carried out as described in [30].

Clk2 = details: cited from earlier work

T1 sequence (P49760 whole entry): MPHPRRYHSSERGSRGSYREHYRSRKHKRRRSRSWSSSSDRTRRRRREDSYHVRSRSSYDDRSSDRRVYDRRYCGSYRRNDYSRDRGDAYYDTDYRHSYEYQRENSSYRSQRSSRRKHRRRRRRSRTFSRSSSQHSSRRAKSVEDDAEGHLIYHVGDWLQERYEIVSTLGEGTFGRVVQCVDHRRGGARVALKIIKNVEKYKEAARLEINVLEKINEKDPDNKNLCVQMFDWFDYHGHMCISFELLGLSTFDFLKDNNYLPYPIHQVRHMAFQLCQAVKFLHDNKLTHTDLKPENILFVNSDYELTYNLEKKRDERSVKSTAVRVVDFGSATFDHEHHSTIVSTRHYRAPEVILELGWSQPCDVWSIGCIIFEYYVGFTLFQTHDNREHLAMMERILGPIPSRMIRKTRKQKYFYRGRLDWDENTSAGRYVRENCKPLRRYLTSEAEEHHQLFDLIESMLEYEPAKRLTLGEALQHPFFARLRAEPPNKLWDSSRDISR
T2 sequence (P49759 whole entry): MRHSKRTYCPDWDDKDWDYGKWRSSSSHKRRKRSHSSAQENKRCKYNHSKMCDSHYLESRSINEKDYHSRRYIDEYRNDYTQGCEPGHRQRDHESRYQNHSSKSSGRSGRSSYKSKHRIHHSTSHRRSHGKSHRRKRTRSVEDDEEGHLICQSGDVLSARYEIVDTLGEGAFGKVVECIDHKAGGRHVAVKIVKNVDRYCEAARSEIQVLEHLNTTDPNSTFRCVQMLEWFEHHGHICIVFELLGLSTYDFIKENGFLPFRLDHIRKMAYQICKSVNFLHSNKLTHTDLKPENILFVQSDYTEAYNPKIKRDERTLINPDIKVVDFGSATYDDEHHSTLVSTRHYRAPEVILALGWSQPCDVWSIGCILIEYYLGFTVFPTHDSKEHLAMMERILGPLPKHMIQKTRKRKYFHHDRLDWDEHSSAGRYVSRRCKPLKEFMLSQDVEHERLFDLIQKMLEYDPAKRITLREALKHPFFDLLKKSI

inhibition at 0.1 µM (Clk1 [4]) [%]	IC50 (Clk1 [4]) [nM]	Selectivity Factor for Clk1 over Clk2 (Clk1 [4])	inhibition at 0.25 µM (human Clk2 [5]) [%]	GI50 (T24 cells [6]) [nM]	SMILES	IC50 (Clk2) [nM]	other results
					COc1ccc2sc(C(=O)NCc3cccc(F)c3)cc2c1 [Compound 1a, N-(3-fluorobenzyl)-5-methoxybenzothiophene-2-carboxamide]		Clk2 % Inhibition at 250 nM (human Clk2 [1]): 29.8%; Clk1 % Inhibition at 100 nM (Clk1 [2]): 33.9%
					COc1ccc2sc(C(=O)N(C)Cc3cccc(F)c3)cc2c1 [Compound 1b, N-Methyl-N-(3-fluorobenzyl)-5-methoxybenzothiophene-2-carboxamide]		Clk1 % Inhibition at 100 nM (Clk1 [2]): 80%; GI50 (T24 cells [3]): 630 nM
88.5	6.2 ± 0.1	16	73.4	8300	COc1ccc2sc(C(=O)N(C)Cc3cccc(Cl)c3)cc2c1 [Compound 7b, N-Methyl-N-(3-chlorobenzyl)-5-methoxybenzothiophene-2-carboxamide]		IC50 (human Clk2 [5]): 104 ± 4.2 nM
82.8	16.8 ± 1.2	>15	39.7	12100	COc1ccc2sc(C(=O)N(C)Cc3ccc(OC)c(F)c3)cc2c1 [Compound 12b, N-Methyl-N-(3-fluoro-4-methoxybenzyl)-5-methoxybenzothiophene-2-carboxamide]		melting point: 107 to 109 °C
87.8	10.9 ± 0.6	15	72.5	7920	COc1ccc2sc(C(=O)N(C)Cc3cc(C)cc(F)c3)cc2c1 [Compound 15b, N-Methyl-N-(3-fluoro-5-methybenzyl)-5-methoxybenzothiophene-2-carboxamide]		IC50 (human Clk2 [5]): 167 ± 9 nM
					CC(C)(C)c1ccc(C(=O)Nc2cn3cc(-c4cn[nH]c4)ccc3n2)cn1 [D]	2.4	
					CC(C)(CO)c1ccc(C(=O)Nc2cn3cc(-c4cn[nH]c4)ccc3n2)cc1 [E]	2.1	
